From patent US20250320213A1, “Nitrogen-Containing Heterocyclic Compounds” (Pfizer Inc., priority 2024, published 2025)

Molecular target: T1, STAT6 (Homo sapiens, UniProt P42226)
T1 construct: stably transfected HaCaT keratinocyte cell line, which expresses NanoLuc luciferase reporter gene under the transcriptional control of the STAT6 responsive promoter; endogenous in cells; host or cells: HaCaT keratinocyte reporter cell line (stably transfected with a NanoLuc reporter)
T1 sequence (P42226 1-847): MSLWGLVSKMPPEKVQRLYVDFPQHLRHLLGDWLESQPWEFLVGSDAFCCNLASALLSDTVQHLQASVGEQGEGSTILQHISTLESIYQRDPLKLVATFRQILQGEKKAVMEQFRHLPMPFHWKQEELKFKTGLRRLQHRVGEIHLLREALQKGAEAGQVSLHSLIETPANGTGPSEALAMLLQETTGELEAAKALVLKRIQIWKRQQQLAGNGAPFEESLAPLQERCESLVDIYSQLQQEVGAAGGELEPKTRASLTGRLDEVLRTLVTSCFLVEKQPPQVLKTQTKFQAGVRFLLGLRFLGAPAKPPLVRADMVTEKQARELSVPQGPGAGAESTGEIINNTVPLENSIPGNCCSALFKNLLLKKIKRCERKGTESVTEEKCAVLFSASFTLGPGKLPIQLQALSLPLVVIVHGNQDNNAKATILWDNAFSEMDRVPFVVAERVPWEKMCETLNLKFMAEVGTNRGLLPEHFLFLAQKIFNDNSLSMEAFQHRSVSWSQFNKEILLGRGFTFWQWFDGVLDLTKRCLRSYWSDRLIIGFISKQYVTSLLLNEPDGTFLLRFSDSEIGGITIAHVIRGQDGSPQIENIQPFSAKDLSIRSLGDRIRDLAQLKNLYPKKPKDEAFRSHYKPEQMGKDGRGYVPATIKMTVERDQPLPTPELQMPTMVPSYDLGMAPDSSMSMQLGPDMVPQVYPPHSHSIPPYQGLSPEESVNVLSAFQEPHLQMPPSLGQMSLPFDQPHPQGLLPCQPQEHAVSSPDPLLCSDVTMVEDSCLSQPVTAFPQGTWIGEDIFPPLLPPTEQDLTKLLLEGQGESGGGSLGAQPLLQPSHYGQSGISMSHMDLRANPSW
Test: STAT6 Reporter Luciferase Assay (IL-13 stimulated HaCaT keratinocyte NanoLuc reporter cells)
Assay type: cell-based
Conditions: IL-13 stimulated HaCaT STAT6 NanoLuc reporter cells; read-out: Reporter EC50
Outline: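 IL-13 (0.12 nM, 4 h) stimulated STAT6 reporter activity in HaCaT cells after a 2 h compound pre-incubation; NanoLuc signal was measured.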

SMILES | EC50 [nM]
CC(C)n1nc(C(=O)NCc2ccc(NC(=O)N(C)C)cc2)c2c1CCN(c1ccc(C(=O)N3CCn4nc(C#N)cc4C3)cn1)C2 [Example 386, 5-(5-(2-cyano-4,5,6,7-tetrahydropyrazolo[1,5-a]pyrazine-5-carbonyl)pyridin-2-yl)-N-(4-(3,3-dimethylureido)benzyl)-1-isopropyl-4,5,6,7-tetrahydro-1H-pyrazolo[4,3-c]pyridine-3-carboxamide] | 56
Cc1cnc2n1CCN(C(=O)c1ccc(N3CCc4c(c(C(=O)NCc5ccc(NC(=O)N(C)C)cc5)nn4C(C)C)C3)nc1)C2 [Example 404, N-(4-(3,3-dimethylureido)benzyl)-1-isopropyl-5-(5-(3-methyl-5,6,7,8-tetrahydroimidazo[1,2-a]pyrazine-7-carbonyl)pyridin-2-yl)-4,5,6,7-tetrahydro-1H-pyrazolo[4,3-c]pyridine-3-carboxamide] | 40
CC(C)n1nc(C(=O)NCc2ccc(NC(=O)N(C)C)cc2)c2c1CCN(c1ccc(C(=O)N3CCc4ncn(C)c4C3)cn1)C2 [Example 405, N-(4-(3,3-dimethylureido)benzyl)-1-isopropyl-5-(5-(3-methyl-4,5,6,7-tetrahydro-3H-imidazo[4,5-c]pyridine-5-carbonyl)pyridin-2-yl)-4,5,6,7-tetrahydro-1H-pyrazolo[4,3-c]pyridine-3-carboxamide] | 159
CC(C)n1nc(C(=O)NCc2ccc(NC(=O)N(C)C)cc2)c2c1CCN(c1ccc(C(=O)N3Cc4cncnc4C3)cn1)C2 [Example 408, 5-(5-(6,7-dihydro-5H-pyrrolo[3,4-d]pyrimidine-6-carbonyl)pyridin-2-yl)-N-(4-(3,3-dimethylureido)benzyl)-1-isopropyl-4,5,6,7-tetrahydro-1H-pyrazolo[4,3-c]pyridine-3-carboxamide] | 39
CC(C)n1nc(C(=O)NCc2ccc(NC(=O)N(C)C)cc2)c2c1CCN(c1ccc(C(=O)N3CCc4cnc(O)cc4C3)cn1)C2 [Example 412, N-(4-(3,3-dimethylureido)benzyl)-5-(5-(7-hydroxy-1,2,3,4-tetrahydro-2,6-naphthyridine-2-carbonyl)pyridin-2-yl)-1-isopropyl-4,5,6,7-tetrahydro-1H-pyrazolo[4,3-c]pyridine-3-carboxamide] | 396
Cc1nc2n(n1)CCN(C(=O)c1ccc(N3CCc4c(c(C(=O)NCc5ccc(NC(=O)N(C)C)cc5)nn4C(C)C)C3)nc1)C2 [Example 413, N-(4-(3,3-dimethylureido)benzyl)-1-isopropyl-5-(5-(2-methyl-5,6,7,8-tetrahydro-[1,2,4]triazolo[1,5-a]pyrazine-7-carbonyl)pyridin-2-yl)-4,5,6,7-tetrahydro-1H-pyrazolo[4,3-c]pyridine-3-carboxamide] | 82
Cc1nc2n(c1C)CCN(C(=O)c1ccc(N3CCc4c(c(C(=O)NCc5ccc(NC(=O)N(C)C)cc5)nn4C(C)C)C3)nc1)C2 [Example 414, 5-(5-(2,3-dimethyl-5,6,7,8-tetrahydroimidazo[1,2-a]pyrazine-7-carbonyl)pyridin-2-yl)-N-(4-(3,3-dimethylureido)benzyl)-1-isopropyl-4,5,6,7-tetrahydro-1H-pyrazolo[4,3-c]pyridine-3-carboxamide] | 66
Cc1nn(C)c2c1CCN(C(=O)c1ccc(N3CCc4c(c(C(=O)NCc5ccc(NC(=O)N(C)C)cc5)nn4C(C)C)C3)nc1)C2 [Example 418, 5-(5-(1,3-dimethyl-4,5,6,7-tetrahydro-1H-pyrazolo[3,4-c]pyridine-6-carbonyl)pyridin-2-yl)-N-(4-(3,3-dimethylureido)benzyl)-1-isopropyl-4,5,6,7-tetrahydro-1H-pyrazolo[4,3-c]pyridine-3-carboxamide] | 61

Stronger by EC50, values ahead:

EC50 [nM] | SMILES
3 | COc1cccc2c1CN(C(=O)c1ccc(N3CCc4c(c(C(=O)NCc5ccc(NC(=O)N(C)C)cc5)nn4C(C)C)C3)nc1)C2 [Example 387, N-(4-(3,3-dimethylureido)benzyl)-1-isopropyl-5-(5-(4-methoxyisoindoline-2-carbonyl)pyridin-2-yl)-4,5,6,7-tetrahydro-1H-pyrazolo[4,3-c]pyridine-3-carboxamide]
32 | Cc1nn(C)c2c1CN(C(=O)c1ccc(N3CCc4c(c(C(=O)NCc5ccc(NC(=O)N(C)C)cc5)nn4C(C)C)C3)nc1)C2 [Example 401, 5-(5-(1,3-dimethyl-1,4,5,6-tetrahydropyrrolo[3,4-c]pyrazole-5-carbonyl)pyridin-2-yl)-N-(4-(3,3-dimethylureido)benzyl)-1-isopropyl-4,5,6,7-tetrahydro-1H-pyrazolo[4,3-c]pyridine-3-carboxamide]
3 | CC(C)n1nc(C(=O)NCc2ccc(NC(=O)N(C)C)cc2)c2c1CCN(c1ccc(C(=O)N3Cc4ncsc4C3)cn1)C2 [Example 402, 5-(5-(5,6-dihydro-4H-pyrrolo[3,4-d]thiazole-5-carbonyl)pyridin-2-yl)-N-(4-(3,3-dimethylureido)benzyl)-1-isopropyl-4,5,6,7-tetrahydro-1H-pyrazolo[4,3-c]pyridine-3-carboxamide]
12 | CC(C)n1nc(C(=O)NCc2ccc(NC(=O)N(C)C)cc2)c2c1CCN(c1ccc(C(=O)N3CCc4scnc4C3)cn1)C2 [Example 403, N-(4-(3,3-dimethylureido)benzyl)-1-isopropyl-5-(5-(4,5,6,7-tetrahydrothiazolo[4,5-c]pyridine-5-carbonyl)pyridin-2-yl)-4,5,6,7-tetrahydro-1H-pyrazolo[4,3-c]pyridine-3-carboxamide]
11 | Cc1nc2c(s1)CCN(C(=O)c1ccc(N3CCc4c(c(C(=O)NCc5ccc(NC(=O)N(C)C)cc5)nn4C(C)C)C3)nc1)C2 [Example 406, N-(4-(3,3-dimethylureido)benzyl)-1-isopropyl-5-(5-(2-methyl-4,5,6,7-tetrahydrothiazolo[4,5-c]pyridine-5-carbonyl)pyridin-2-yl)-4,5,6,7-tetrahydro-1H-pyrazolo[4,3-c]pyridine-3-carboxamide]
24 | Cc1nc2c(n1C)CCN(C(=O)c1ccc(N3CCc4c(c(C(=O)NCc5ccc(NC(=O)N(C)C)cc5)nn4C(C)C)C3)nc1)C2 [Example 409, 5-(5-(1,2-dimethyl-4,5,6,7-tetrahydro-1H-imidazo[4,5-c]pyridine-5-carbonyl)pyridin-2-yl)-N-(4-(3,3-dimethylureido)benzyl)-1-isopropyl-4,5,6,7-tetrahydro-1H-pyrazolo[4,3-c]pyridine-3-carboxamide]
15 | Cc1cnc2c(c1)CN(C(=O)c1ccc(N3CCc4c(c(C(=O)NCc5ccc(NC(=O)N(C)C)cc5)nn4C(C)C)C3)nc1)CC2 [Example 410, N-(4-(3,3-dimethylureido)benzyl)-1-isopropyl-5-(5-(3-methyl-5,6,7,8-tetrahydro-1,6-naphthyridine-6-carbonyl)pyridin-2-yl)-4,5,6,7-tetrahydro-1H-pyrazolo[4,3-c]pyridine-3-carboxamide]
8 | CC(C)n1nc(C(=O)NCc2ccc(NC(=O)N(C)C)cc2)c2c1CCN(c1ccc(C(=O)N3Cc4ccc(C#N)cc4C3)cn1)C2 [Example 411, 5-(5-(5-cyanoisoindoline-2-carbonyl)pyridin-2-yl)-N-(4-(3,3-dimethylureido)benzyl)-1-isopropyl-4,5,6,7-tetrahydro-1H-pyrazolo[4,3-c]pyridine-3-carboxamide]
3 | CC(C)n1nc(C(=O)NCc2ccc(NC(=O)N(C)C)cc2)c2c1CCN(c1ccc(C(=O)N3Cc4cccc(C#N)c4C3)cn1)C2 [Example 415, 5-(5-(4-cyanoisoindoline-2-carbonyl)pyridin-2-yl)-N-(4-(3,3-dimethylureido)benzyl)-1-isopropyl-4,5,6,7-tetrahydro-1H-pyrazolo[4,3-c]pyridine-3-carboxamide]
29 | CC(C)n1nc(C(=O)NCc2ccc(NC(=O)N(C)C)cc2)c2c1CCN(c1ccc(C(=O)N3CCc4c(cnn4C)C3)cn1)C2 [Example 416, N-(4-(3,3-dimethylureido)benzyl)-1-isopropyl-5-(5-(1-methyl-4,5,6,7-tetrahydro-1H-pyrazolo[4,3-c]pyridine-5-carbonyl)pyridin-2-yl)-4,5,6,7-tetrahydro-1H-pyrazolo[4,3-c]pyridine-3-carboxamide]
17 | CC(C)n1nc(C(=O)NCc2ccc(NC(=O)N(C)C)cc2)c2c1CCN(c1ccc(C(=O)N3CCc4cccnc4C3)cn1)C2 [Example 417, N-(4-(3,3-dimethylureido)benzyl)-1-isopropyl-5-(5-(5,6,7,8-tetrahydro-1,7-naphthyridine-7-carbonyl)pyridin-2-yl)-4,5,6,7-tetrahydro-1H-pyrazolo[4,3-c]pyridine-3-carboxamide]
